The values below come from patent US20180250351A1 (priority 2015, published 2018).

The conditions of series [1]: animals; cited from earlier work.
For series [2] the following is noted: humans; absolute terms, curcumin alone at the non detectable level; cited from earlier work.
The conditions of series [3]: human, in vivo.
For series [4] the following is noted: curcumin dose 100 mg/kg (NPs) or 250 mg/kg (others); cited from earlier work.
The target of series [5] is T1, UDP-glucose dehydrogenase (UDP-GDH) (Homo sapiens, UniProt O60701).
T1 sequence (O60701 1-494): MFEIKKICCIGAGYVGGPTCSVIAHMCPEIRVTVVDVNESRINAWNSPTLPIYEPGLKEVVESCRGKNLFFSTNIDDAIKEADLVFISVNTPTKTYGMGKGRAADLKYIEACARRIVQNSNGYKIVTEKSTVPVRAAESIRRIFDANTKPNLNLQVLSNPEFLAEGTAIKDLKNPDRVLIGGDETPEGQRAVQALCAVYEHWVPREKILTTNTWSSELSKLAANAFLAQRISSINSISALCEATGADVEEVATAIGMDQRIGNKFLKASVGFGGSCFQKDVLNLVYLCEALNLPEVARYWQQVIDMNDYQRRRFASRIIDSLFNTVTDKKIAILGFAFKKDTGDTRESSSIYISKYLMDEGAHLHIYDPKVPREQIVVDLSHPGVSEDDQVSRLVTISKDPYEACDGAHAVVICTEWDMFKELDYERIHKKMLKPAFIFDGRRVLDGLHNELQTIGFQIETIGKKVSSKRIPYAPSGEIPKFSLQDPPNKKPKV
Put plainly: Spectrophotometric test of inhibition of UDP-glucose dehydrogenase. It counts as biochemical. Conditions: for type of inhibition of UDP-GDH: in relation to enzyme/substrate and cofactor NAD+; for pIC50: 37° C., 340 nm. The procedure: The UDP-GDH enzyme catalyses the oxidation of the UDP-glucose using the NAD+ as the oxidant agent, according to the following formula: […]
UDP-glucose+2NAD++H2O→UDP-glucuronic acid+2NADH+2H+
For the spectrophotometric evaluation of the enzymatic activity the following reactive mix has been used:
The test has been done at 37° C. and monitored at 340 nm for 20 minutes.
The algae has thus been suspended in different concentrations (10-50-100 mg/ml) in distilled water on the one hand and in 100% ethanol on the other; then homogenized and afterwards centrifuged at 5000 rpm for 10 minutes. We have then checked through spectrophotometry the presence in the two extracts of the relevant components, verifying the presence of phycocyanins at 620 nm for the water extract and of carotenoids at 400 nm and chlorophyll at 664 nm for the ethanol extract.

pIC50: −log10 of the molar value. Where two headings read alike, the source gives them in different places.

For `O=C(/C=C/C=C/c1ccc2c(c1)OCO2)N1CCCCC1` [Piperine, piperine], the “plasma concentration increase of curcumin” value was 154% in series [1] and 2000% in series [2].

For `COc1cc(/C=C/C(=O)CC(=O)/C=C/c2ccc(O)c(OC)c2)ccc1O` [curcumin alone, curcumin], in series [3], the “time of absorption peak after ingestion” value was “approximately 15 min” and the “time of peak after ingestion” value is “approximately 1 hour”. Also, in series [4], the AUC is 312 ng·h/mL and the Cmax was 90.3 ng/mL.

Regarding phycocyanin, the “type of inhibition of UDP-GDH” value in series [5] is reported as “mixed type”. The same compound had a pIC50 in series [5] (purified molecule) of 5.62.

phycocyanobilin: the “type of inhibition of UDP-GDH” value in series [5] was “directly competitive”. In series [5] (purified pigment), the pIC50 was 8.57.
